Our source for the EC50 values is US20230233650A1, “NOVEL FATTY ACID MODIFIED UROCORTIN 2 DERIVATIVES AND THE USES THEREOF” (Novo Nordisk A/S, priority 2021, published 2023).

Numbered stars: 1 amine (or outer) side, 2 acyl side, 3 side chain; on linkers, the order of the positions; unused ones are H or OH. Side chains are listed from the residue outwards. Peptide text beside a SMILES is read from it. * marks the point of attachment. C20 diacid = O=C(O)CCCCCCCCCCCCCCCCCCC(=O)*; γGlu = O=C(O)[C@H](CCC(=O)[*:2])N[*:1]; AEEA = NCCOCCOCC(=O)O Some results are limits rather than exact numbers.

The target in the assay is T1, Human CRF1 receptor (Homo sapiens, UniProt P34998).
T1 construct: host or cells: CHO-K1 (membrane preparation)
T1 sequence (P34998 24-415): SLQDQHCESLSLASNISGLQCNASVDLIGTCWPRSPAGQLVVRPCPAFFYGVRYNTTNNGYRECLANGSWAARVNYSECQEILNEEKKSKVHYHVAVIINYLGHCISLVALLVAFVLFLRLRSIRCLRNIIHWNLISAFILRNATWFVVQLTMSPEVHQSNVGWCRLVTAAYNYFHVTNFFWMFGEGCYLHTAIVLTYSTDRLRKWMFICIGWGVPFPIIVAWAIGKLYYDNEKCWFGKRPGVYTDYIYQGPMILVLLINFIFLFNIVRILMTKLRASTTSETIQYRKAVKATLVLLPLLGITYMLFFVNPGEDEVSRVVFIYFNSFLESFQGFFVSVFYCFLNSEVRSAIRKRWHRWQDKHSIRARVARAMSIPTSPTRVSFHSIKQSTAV
Briefly: CRF1 receptor CHO cell β-Arrestin recruitment assay (PathHunter). The note with it: CHO-K1 cells, 0.1% ovalbumin. It is filed as cell-based. How it is done: The purpose of this investigation was to test the in vitro agonistic activity (potency) of the compounds of the invention to receptor subtype CRF1 and CRF2. […] The native, human Ucn1 and Ucn2 peptides were included as references. Assay principle: Activated G-protein coupled receptors (GPCRs) can interact with the Arrestin family of signalling proteins. The potency of peptides for CRF induced Arrestin recruitment is determined using the PathHunter Enzyme Fragment Complementation approach substantially as described in von […] et al., FASEB J., 2007, 3819, 26 and Hamdouchi et al., J. Med. Chem., 2016, 59, 10891-10916. The target GPCR is tagged with the small fragment of β-gal called ProLinkTM, a low affinity version of enzyme donor and co-expressed in cells stably expressing β-Arrestin tagged with enzyme acceptor. Activation of the GPCR stimulates binding of β-Arrestin to the ProLink-tagged GPCR, forcing complementation of ProLink and enzyme acceptor, resulting in the formation of an active β-gal enzyme. The resulting active enzyme hydrolyses substrate present in the PathHunter detection reagents to generate light. […] Plates were first incubated for 90 minutes in a 37° C., 5% CO2 incubator and then 5 μL of PathHunter detection reagent was added (DiscoveRx, 93-0001) and the plates were incubated at room temperature for 60 minutes after which the luminescence signal was measured (BMG […]). […]

For `CC[C@H](C)[C@H](NC(=O)[C@H](CCC(=O)O)NC(=O)[C@H](C)NC(=O)[C@H](CC(N)=O)NC(=O)[C@@H](NC(=O)[C@@H](NC(=O)[C@H](C)NC(=O)[C@H](CCC(N)=O)NC(=O)[C@H](CCC(=O)O)NC(=O)[C@H](CCCNC(=N)N)NC(=O)[C@H](C)NC(=O)[C@H](C)NC(=O)[C@H](CCCNC(=N)N)NC(=O)[C@H](C)NC(=O)[C@H](CCCNC(=N)N)NC(=O)[C@H](C)NC(=O)[C@H](CCC(N)=O)NC(=O)[C@H](CCC(=O)O)NC(=O)[C@H](CC(C)C)NC(=O)[C@H](CC(C)C)NC(=O)[C@@H](NC(=O)[C@H](CCC(N)=O)NC(=O)[C@H](CC(C)C)NC(=O)[C@H](CC(C)C)NC(=O)CNC(=O)[C@@H](NC(=O)[C@@H]1CCCN1C(=O)[C@@H](NC(=O)[C@H](CC(=O)O)NC(=O)[C@H](CC(C)C)NC(=O)[C@H](CO)NC(=O)[C@H](CC(C)C)NC(=O)[C@@H](NC(=O)[C@@H](NC(=O)[C@@H](N)CCCCNC(=O)COCCOCCNC(=O)COCCOCCNC(=O)CC[C@H](NC(=O)CC[C@H](NC(=O)CC[C@H](NC(=O)CCCCCCCCCCCCCCCCCCC(=O)O)C(=O)O)C(=O)O)C(=O)O)[C@@H](C)CC)C(C)C)C(C)C)[C@@H](C)CC)[C@@H](C)CC)[C@@H](C)O)[C@@H](C)O)C(=O)N[C@@H](CC(C)C)C(=O)N[C@@H](C)C(=O)N[C@@H](CCC(=O)O)C(=O)N[C@H](C(N)=O)C(C)C` [Compound 3] (H-K([AEEA-AEEA-γGlu-γGlu-γGlu-C20 diacid])IVLSLDVPIGLLQILLEQARARAAREQATTNAEILAEV-NH2), the EC50 was greater than 10 µM. Compound `CC[C@H](C)[C@H](NC(=O)[C@H](CCC(=O)O)NC(=O)[C@H](C)NC(=O)[C@H](CC(N)=O)NC(=O)[C@@H](NC(=O)[C@@H](NC(=O)[C@H](C)NC(=O)[C@H](CCC(N)=O)NC(=O)[C@H](CCC(=O)O)NC(=O)[C@H](CCCNC(=N)N)NC(=O)[C@H](C)NC(=O)[C@H](C)NC(=O)[C@H](CCCNC(=N)N)NC(=O)[C@H](C)NC(=O)[C@H](CCCNC(=N)N)NC(=O)[C@H](C)NC(=O)[C@H](CCC(N)=O)NC(=O)[C@H](CCC(=O)O)NC(=O)[C@H](CC(C)C)NC(=O)[C@H](CC(C)C)NC(=O)[C@@H](NC(=O)[C@H](CCC(N)=O)NC(=O)[C@H](CC(C)C)NC(=O)[C@H](CC(C)C)NC(=O)CNC(=O)[C@@H](NC(=O)[C@@H]1CCCN1C(=O)[C@@H](NC(=O)[C@H](CC(=O)O)NC(=O)[C@H](CC(C)C)NC(=O)[C@H](CO)NC(=O)[C@H](CC(C)C)NC(=O)[C@@H](NC(=O)[C@@H](NC(=O)[C@@H](N)CCCCNC(=O)COCCOCCNC(=O)COCCOCCNC(=O)CC[C@H](NC(=O)CC[C@H](NC(=O)CC[C@H](NC(=O)CCCCCCCCCCCCCCCCCCC(=O)O)C(=O)O)C(=O)O)C(=O)O)[C@@H](C)CC)C(C)C)C(C)C)[C@@H](C)CC)[C@@H](C)CC)[C@@H](C)O)[C@@H](C)O)C(=O)N[C@@H](CC(C)C)C(=O)N[C@@H](CCC(=O)O)C(=O)N[C@@H](CCCNC(=N)N)C(=O)N[C@H](C(N)=O)C(C)C` [Compound 4] (H-K([AEEA-AEEA-γGlu-γGlu-γGlu-C20 diacid])IVLSLDVPIGLLQILLEQARARAAREQATTNAEILERV-NH2) returned an EC50 greater than 10 µM.
